From ChEMBL document CHEMBL1268846, “Synthesis and antiproliferative evaluation of N,N-disubstituted-N'-[1-aryl-1H-pyrazol-5-yl]-methnimidamides” (2010)

Experiments:
Assay type in all cases: functional
NCI-H661 = test: Growth inhibition of human NCI-H661 cells after 72 hrs by MTT assay; settings: NCI-H661, 72 h
[1] = Growth inhibition of human NPC-TW01 cells after 72 hrs by MTT assay; settings: NPC-TW01, 72 h
Jurkat = test: Growth inhibition of human Jurkat cells after 72 hrs by MTT assay

SMILES | GI50 (NCI-H661) [µM] | GI50 (Jurkat) [µM] | GI50 [1] [µM]
CN(C)/C=N/c1c(C=O)c(-c2ccccc2)nn1-c1ccccc1 | 31.4 | 23.5 | 9.3
CN(C)/C=N/c1c(C=O)c(-c2ccccc2)nn1-c1ccccc1Cl | 31.4 | 26.3 | 23.3
CN(C)/C=N/c1c(C=O)c(-c2ccccc2)nn1-c1cccc([N+](=O)[O-])c1 | 50 | > 50 | 36.7
COc1ccc(-n2nc(-c3ccccc3)c(C=O)c2/N=C/N(C)C)cc1 | 33.4 | 19.7 | 20.2
CN(C)/C=N/c1c(C=O)c(C(C)(C)C)nn1-c1ccccc1 | 42.8 | 43.5 | > 50
CN/C=N/c1cc(-c2ccccc2)nn1-c1ccccc1 | > 50 | > 50 | > 50
CN/C(C)=N/c1cc(-c2ccccc2)nn1-c1ccccc1 | > 50 | > 50 | > 50
CC/C(=N\c1cc(-c2ccccc2)nn1-c1ccccc1)NC | > 50 | > 50 | > 50
C/C(=N\c1cc(-c2ccccc2)nn1-c1ccccc1)N(C)C | 35.1 | > 50 | > 50
CN(C)/C(=N/c1cc(-c2ccccc2)nn1-c1ccccc1)c1ccccc1 | 46.7 | 36.1 | 20.8

The remaining compounds from weak to strong by GI50 (NCI-H661), led by results:

GI50 (NCI-H661) [µM] | GI50 (Jurkat) [µM] | SMILES | GI50 [1] [µM]
31 | 9.7 | Cc1cccc(-n2nc(-c3ccccc3)c(C=O)c2/N=C/N(C)C)c1 | 8.9
28.8 | 30 | CCN(/C=N/c1c(C=O)c(-c2ccccc2)nn1-c1ccccc1)CC | 30.5
17.7 | 29 | O=Cc1c(-c2ccccc2)nn(-c2ccccc2)c1/N=C/N1CCCCC1 | 24.4
17.6 | 31.3 | O=Cc1c(-c2ccccc2)nn(-c2ccccc2)c1/N=C/N1CCCC1 | > 50
11.9 | 9.5 | Cc1ccc(-c2nn(-c3ccccc3)c(/N=C/N(C)C)c2C=O)cc1 | 9.7
9.9 | 12.5 | COc1ccc(-c2nn(-c3ccccc3)c(/N=C/N(C)C)c2C=O)cc1 | 27.2
8.6 | 7.9 | CN(C)/C=N/c1c(C=O)c(-c2ccc(Cl)cc2)nn1-c1ccccc1 | 8.1
6.9 | 8.3 | CN(C)/C=N/c1c(C=O)c(-c2ccccc2)nn1-c1cccc(Cl)c1 | 6.4
6.7 | 7.3 | CN(C)/C=N/c1c(C=O)c(-c2ccccc2)nn1-c1ccc(Br)cc1 | 7.4
